Data on eight compounds can be found in patent US11566007B2, “Ras inhibitors” (Revolution Medicines, Inc., priority 2019, dated 2023).

Values joined by “and” are separate entries in the source; they are usually repeats but may differ in a detail not shown here. Equal values may be shown once.

Assay [1] deals with NRAS G12C (Homo sapiens (Human), UniProt P01111+P62937, G12C). Briefly: Ras-Raf (BRAF RBD) disruption / FRET / MOA assay, NRAS G12C. The format is biochemical. To be noted: read-out: IC50* NRAS G12C FRET data. The procedure, abridged: (§1)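 Compound-driven ternary complex of nucleotide-loaded Ras with cyclophilin A, disrupting BRAF RBD binding. 10-point 3-fold dilution from 30 μM final, 3 h at 25° C, then anti-His Eu-W1024 (10 nM) and anti-GST allophycocyanin (50 nM) for 1.5 h. IC50 from TR-FRET ratio decrease versus DMSO.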

In assay [2] the target is K-Ras G13C (Homo sapiens (Human), UniProt P01116+P62937, G13C). Briefly: Ras-Raf (BRAF RBD) disruption / FRET / MOA assay, KRAS G13C. It is filed as biochemical. To be noted: KRAS G13C; Ras-Raf disruption/FRET/MOA assay; read-out: IC50* KRAS G13C FRET data. The procedure, abridged: as §1
The target in assay [3] is KRAS G12D (Homo sapiens (Human), UniProt P01116+P62937, G12D). Briefly: Ras-Raf (BRAF RBD) disruption / FRET / MOA assay, KRAS G12D. It is filed as biochemical. To be noted: Ras-Raf disruption/FRET/MOA assay; class symbols; read-out: KRAS G12D FRET data IC50. Put shortly:
as §1

The target of assay [4] is KRAS WT (Homo sapiens (Human), UniProt P01116+P62937). Briefly: Ras-Raf (BRAF RBD) disruption / FRET / MOA assay, KRAS WT. To be noted: read-out: IC50* KRAS WT FRET data. The format is biochemical. Put shortly:
as §1

The target in assay [5] is NRAS WT (Homo sapiens (Human), UniProt P01111+P62937). Briefly: Ras-Raf (BRAF RBD) disruption / FRET / MOA assay, NRAS WT. The format is biochemical. To be noted: read-out: IC50* NRAS WT FRET data. Put shortly:
(§2)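 Compounds (30 μM top final, 10-point 3-fold dilutions) incubated 3 h at 25° C with nucleotide-loaded Ras, cyclophilin A and BRAF RBD. Detection with 10 nM anti-His Eu-W1024 and 50 nM anti-GST allophycocyanin over another 1.5 h. Lowered TR-FRET ratio relative to DMSO wells gives IC50.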

Assay [6] deals with KRAS G12S (Homo sapiens (Human), UniProt P01116+P62937, G12S). Briefly: Ras-Raf (BRAF RBD) disruption / FRET / MOA assay, KRAS G12S. It is filed as biochemical. To be noted: Ras-Raf disruption/FRET/MOA assay; class symbols; read-out: KRAS G12S FRET data IC50. Put shortly:
as §1

In assay [7] the target is K-Ras G12C (Homo sapiens (Human), UniProt P01116+P62937, G12C). Briefly: Ras-Raf (BRAF RBD) disruption / FRET / MOA assay, KRAS G12C. It is filed as biochemical. To be noted: KRAS G12C; Ras-Raf disruption/FRET/MOA assay; read-out: IC50* KRAS G12C FRET data. The procedure, abridged: as §1
Assay [8] addresses KRAS G12V (Homo sapiens (Human), UniProt P01116+P62937, G12V). Briefly: Ras-Raf (BRAF RBD) disruption / FRET / MOA assay, KRAS G12V. It is filed as biochemical. To be noted: read-out: IC50* KRAS G12V FRET data. Put shortly: as §1
Assay [9] addresses KRAS G13D (Homo sapiens (Human), UniProt P01116+P62937, G13D). Briefly: Ras-Raf (BRAF RBD) disruption / FRET / MOA assay, KRAS G13D. It is filed as biochemical. To be noted: read-out: IC50* KRAS G13D FRET data. The procedure, abridged: as §1
The target in assay [10] is NRAS Q61R (Homo sapiens (Human), UniProt P01111+P62937, Q61R). Briefly: Ras-Raf (BRAF RBD) disruption / FRET / MOA assay, NRAS Q61R. It is filed as biochemical. To be noted: NRAS Q61R; Ras-Raf disruption/FRET/MOA assay; read-out: IC50* NRAS Q61R FRET data. Put shortly: as §2
The target in assay [11] is KRAS Q61H (Homo sapiens (Human), UniProt P01116+P62937, Q61H). Briefly: Ras-Raf (BRAF RBD) disruption / FRET / MOA assay, KRAS Q61H. It is filed as biochemical. To be noted: Ras-Raf disruption/FRET/MOA assay; class symbols; read-out: KRAS Q61H FRET data IC50. Put shortly: as §2
In assay [12] the test system is NCI-H358 (K-Ras G12C). Briefly: CellTiter-Glo cell viability assay, NCI-H358. It is filed as cell-based, human. To be noted: Homo sapiens, NCI-H358, 120 h, NCI-H358, 5-day treatment; class symbols; read-out: Additional H358 Cell Viability assay data (K-Ras G12C, IC50). The procedure, abridged: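 Luminescent viability readout on day 5 after direct compound addition to plated cells; plates sat ~30 min at room temperature before reading. Values expressed as percent of mean DMSO signal, curves fit with a four-parameter logistic model.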

In assay [13] the target is NRAS Q61K (Homo sapiens (Human), UniProt P01111+P62937, Q61K). Briefly: Ras-Raf (BRAF RBD) disruption / FRET / MOA assay, NRAS Q61K. The format is biochemical. To be noted: NRAS Q61K; Ras-Raf disruption/FRET/MOA assay; read-out: IC50* NRAS Q61K FRET data. The procedure, abridged:
as §2

Assay [14] relates to NCI-H358 cells (K-Ras G12C). Briefly: Potency assay: pERK in NCI-H358 cells. To be noted: Homo sapiens, NCI-H358; H358 KRAS G12C; read-out: pERK EC50. It is filed as cell-based, human. The procedure, abridged: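 Compounds are dosed as ten 3-fold dilutions from a 10 mM DMSO stock, in duplicate, and left on cells for 4 h at 37 °C, 5% CO2. Phospho-ERK1/2 is then quantified by AlphaLISA SureFire Ultra or In-Cell Western, and IC50 is derived from a 4-parameter sigmoid against log concentration.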

Chain of NRAS Q61K (P01111 whole entry Q61K): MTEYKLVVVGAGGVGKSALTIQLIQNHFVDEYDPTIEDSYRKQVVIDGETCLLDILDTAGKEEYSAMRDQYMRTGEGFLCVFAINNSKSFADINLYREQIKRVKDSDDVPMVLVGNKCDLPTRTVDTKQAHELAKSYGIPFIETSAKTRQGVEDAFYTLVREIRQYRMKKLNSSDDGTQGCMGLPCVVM
Chain of NRAS Q61K (P62937 whole entry): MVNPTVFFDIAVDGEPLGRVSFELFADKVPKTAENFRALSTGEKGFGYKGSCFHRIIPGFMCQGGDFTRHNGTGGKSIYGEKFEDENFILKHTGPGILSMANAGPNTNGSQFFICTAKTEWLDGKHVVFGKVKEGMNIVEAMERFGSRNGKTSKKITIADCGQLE
Chain of NRAS G12C (P01111 whole entry G12C): as the sequence (P01111 whole entry Q61K) above, with G12C, K61Q counted along it
Chain of NRAS G12C (P62937 whole entry): as the sequence (P62937 whole entry) above
Chain of KRAS Q61H (P01116-2 other isoform, or with tags, fused parts or gaps Q61H): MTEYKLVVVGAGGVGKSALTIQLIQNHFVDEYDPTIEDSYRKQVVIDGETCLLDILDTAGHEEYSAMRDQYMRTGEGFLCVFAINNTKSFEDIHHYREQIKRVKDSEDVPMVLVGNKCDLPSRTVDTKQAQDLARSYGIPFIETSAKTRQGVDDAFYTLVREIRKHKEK
Chain of KRAS Q61H (P62937 whole entry): as the sequence (P62937 whole entry) above
Chain of KRAS WT (P01116-2 other isoform, or with tags, fused parts or gaps): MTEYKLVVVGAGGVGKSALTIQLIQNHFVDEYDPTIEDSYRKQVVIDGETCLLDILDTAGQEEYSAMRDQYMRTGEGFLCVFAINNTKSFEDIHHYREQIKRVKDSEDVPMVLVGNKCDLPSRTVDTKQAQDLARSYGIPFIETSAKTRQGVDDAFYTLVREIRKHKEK
Chain of KRAS WT (P62937 whole entry): as the sequence (P62937 whole entry) above
Chain of NRAS Q61R (P01111 whole entry Q61R): as the sequence (P01111 whole entry Q61K) above, with K61R counted along it
Chain of NRAS Q61R (P62937 whole entry): as the sequence (P62937 whole entry) above
Chain of KRAS G12D (P01116-2 other isoform, or with tags, fused parts or gaps G12D): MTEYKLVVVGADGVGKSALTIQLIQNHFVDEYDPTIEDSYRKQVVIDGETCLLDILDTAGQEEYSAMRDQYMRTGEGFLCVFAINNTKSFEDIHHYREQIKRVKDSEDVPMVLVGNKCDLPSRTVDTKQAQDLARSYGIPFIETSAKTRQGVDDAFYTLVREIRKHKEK
Chain of KRAS G12D (P62937 whole entry): as the sequence (P62937 whole entry) above
Chain of KRAS G12V (P01116-2 other isoform, or with tags, fused parts or gaps G12V): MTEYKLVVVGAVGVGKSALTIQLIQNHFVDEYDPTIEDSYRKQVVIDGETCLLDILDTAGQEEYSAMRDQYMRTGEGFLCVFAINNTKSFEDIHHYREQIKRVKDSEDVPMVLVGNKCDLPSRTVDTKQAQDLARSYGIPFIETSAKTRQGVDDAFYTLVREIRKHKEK
Chain of KRAS G12V (P62937 whole entry): as the sequence (P62937 whole entry) above
Chain of K-Ras G13C (P01116-2 other isoform, or with tags, fused parts or gaps G13C): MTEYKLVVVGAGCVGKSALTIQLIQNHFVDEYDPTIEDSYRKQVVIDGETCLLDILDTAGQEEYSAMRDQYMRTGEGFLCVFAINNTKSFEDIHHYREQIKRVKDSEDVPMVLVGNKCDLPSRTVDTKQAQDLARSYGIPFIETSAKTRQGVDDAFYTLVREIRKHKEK
Chain of K-Ras G13C (P62937 whole entry): as the sequence (P62937 whole entry) above
Chain of KRAS G12S (P01116-2 other isoform, or with tags, fused parts or gaps G12S): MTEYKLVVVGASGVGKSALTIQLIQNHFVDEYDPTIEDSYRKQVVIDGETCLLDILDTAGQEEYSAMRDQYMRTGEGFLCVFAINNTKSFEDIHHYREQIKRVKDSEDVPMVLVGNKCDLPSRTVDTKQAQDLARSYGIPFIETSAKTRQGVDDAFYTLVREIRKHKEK
Chain of KRAS G12S (P62937 whole entry): as the sequence (P62937 whole entry) above
Chain of NRAS WT (P01111 whole entry): as the sequence (P01111 whole entry Q61K) above, with K61Q counted along it
Chain of NRAS WT (P62937 whole entry): as the sequence (P62937 whole entry) above
Chain of K-Ras G12C (P01116-2 other isoform, or with tags, fused parts or gaps G12C): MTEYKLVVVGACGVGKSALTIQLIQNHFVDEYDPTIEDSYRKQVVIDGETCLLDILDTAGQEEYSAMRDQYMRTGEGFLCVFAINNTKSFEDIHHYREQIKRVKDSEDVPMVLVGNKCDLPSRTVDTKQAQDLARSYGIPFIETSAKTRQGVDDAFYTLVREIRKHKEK
Chain of K-Ras G12C (P62937 whole entry): as the sequence (P62937 whole entry) above
Chain of KRAS G13D (P01116-2 other isoform, or with tags, fused parts or gaps G13D): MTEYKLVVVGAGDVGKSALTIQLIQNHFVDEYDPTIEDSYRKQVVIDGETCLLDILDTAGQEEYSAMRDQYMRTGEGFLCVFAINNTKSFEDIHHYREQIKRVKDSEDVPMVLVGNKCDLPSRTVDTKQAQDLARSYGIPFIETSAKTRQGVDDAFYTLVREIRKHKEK
Chain of KRAS G13D (P62937 whole entry): as the sequence (P62937 whole entry) above

As for `C=CC(=O)N1CC[C@H](C(=O)N(C)[C@H](C(=O)N[C@H]2CC3=NN=C(S3)c3ccc4c(c3)c(c(-c3cccnc3[C@H](C)OC)n4CC)CC(C)(C)COC(=O)[C@@H]3CCCN(N3)C2=O)C(C)C)C1` (atropisomer, axis not shown) [Example A248], the half-maximal inhibitory concentration (IC50) in assay [1] was 1 to 10 µM; in [2], > 10 µM; in assay [3] it was > 10 µM; in assay [4], > 10 µM; in [5], > 10 µM; in assay [6] it was > 10 µM. In addition, the IC50 was 1 to 10 µM in [7]; > 10 µM in assay [8]; > 10 µM in assay [9]; > 10 µM in [10]; > 10 µM in assay [11]; > 1 µM in [12]. Further, in assay [13], the IC50 is > 10 µM.

As to `CC#CC(=O)N1CC[C@H](C(=O)N(C)[C@H](C(=O)N[C@H]2Cc3cccc(c3)-c3ccc4c(c3)c(c(-c3cccnc3[C@H](C)OC)n4C#N)CC(C)(C)COC(=O)[C@@H]3CCCN(N3)C2=O)C(C)C)C1` (atropisomer, axis not shown) [Example A304], the IC50 in [1], in assay [2], in [3], in assay [4], in assay [5] and in [6] was > 10 µM each time. Moreover, the IC50 is > 10 µM in assay [7]; > 10 µM in [8]; > 10 µM in assay [9]; > 10 µM in assay [10]; > 10 µM in assay [11]; 0.1 to 1 µM in [12]. In assay [13], the IC50 is > 10 µM.

Regarding `C=CC(=O)N(C)C(=O)N(C)[C@H](C(=O)N[C@H]1Cc2nc(cs2)-c2ccc3c(c2)c(c(-c2cccnc2[C@H](C)OC)n3CC)CC(C)(C)COC(=O)[C@@H]2CCCN(N2)C1=O)C(C)C` (atropisomer, axis not shown) [Example A355], the IC50 in [1], in assay [2], in [3], in assay [4], in assay [5] and in assay [6] was > 10 µM each time. The IC50 was > 10 µM in assay [7]; > 10 µM in [8]; > 10 µM in assay [9]; > 10 µM in [10]; > 10 µM in assay [11]; 0.1 to 1 µM in assay [12]. In addition, the IC50 in assay [13] was > 10 µM.

`C=CC(=O)N1CC[C@H](C(=O)N(C)[C@H](C(=O)N[C@H]2Cc3cccc(c3)-c3ccc4c(c3)c(c(-c3cnn(C)c3CN(C)C)n4CC)CC(C)(C)COC(=O)[C@@H]3CCCN(N3)C2=O)C(C)C)C1` (relative stereo) [Example A329]: the IC50 in [1], in assay [2], in [3], in assay [4], in [5] and in [6] was > 10 µM throughout. Further, the half-inhibitory concentration (IC50) in assay [7] is > 10 µM; in [8] it was > 10 µM; in assay [9], > 10 µM; in assay [10], > 10 µM; in assay [11] it was > 10 µM; in [12] it was 0.1 to 1 µM. Moreover, the IC50 in assay [13] is > 10 µM.

Regarding `C=CC(=O)N1CC[C@H](C(=O)N(C)[C@H](C(=O)N[C@H]2Cc3cccc(c3)-c3ccc4c(c3)c(c(-c3cc(N5CCN(C)CC5)cnc3[C@H](C)OC)n4CC)CC(C)(C)COC(=O)[C@@H]3CCCN(N3)C2=O)C(C)C)C1` (single isomer, unassigned) [Example A328], the EC50 in assay [14] was < 5 µM. The IC50 is 0.01 to 0.1 µM and 1 to 10 µM in assay [1]; 0.1 to 1 µM and > 10 µM in assay [2]; 1 to 10 µM and > 10 µM in assay [3]; 1 to 10 µM and > 10 µM in assay [4]; 1 to 10 µM in assay [5]; 0.1 to 1 µM and > 10 µM in assay [6]. For the same compound, the IC50 is 0.01 to 0.1 µM and 1 to 10 µM in [7]; 1 to 10 µM and > 10 µM in [8]; 1 to 10 µM and > 10 µM in assay [9]; 1 to 10 µM in assay [10]; 0.1 to 1 µM in assay [11]; 1 to 10 µM in assay [13].

As for `C=CC(=O)C1C[C@@H](C(=O)N(C)[C@H](C(=O)N[C@H]2Cc3cc(O)cc(c3)-c3ccc4c(n3)c(c(-c3ccccc3CCOC)n4CC)CC(C)(C)COC(=O)[C@@H]3CCCN(N3)C2=O)C(C)C)CN1` (some centres unmarked) [Example A211], in assay [14], the EC50 was < 5 µM. For the same compound, the IC50 is 100 nM to 1 µM and 1 µM to 10 µM and > 10 µM (2×) in assay [1]; > 10 µM in assay [2]; > 10 µM in [3]; > 10 µM in [4]; 1 to 10 µM in [5]; 1 µM to 10 µM and > 10 µM (3×) in assay [6]. For the same compound, the IC50 was 100 nM to 1 µM and 1 µM to 10 µM and > 10 µM (2×) in [7]; 1 µM to 10 µM and > 10 µM (3×) in assay [8]; > 10 µM in assay [9]; > 10 µM in assay [10]; 1 to 10 µM in [11]; 1 to 10 µM in assay [13].

Consider `C=CC(=O)N1CC[C@H](C(=O)N(C)[C@H](C(=O)N[C@H]2Cc3nc(cs3)-c3ccc4c(n3)c(c(-c3cccnc3[C@H](C)OC)n4CC)CC(C)(C)COC(=O)[C@@H]3CCCN(N3)C2=O)C(C)C)C1` [Example A347, (2S)-N-[(7S,13S)-21-ethyl-20-{2-[(1S)-1-methoxyethyl]pyridin-3-yl}-17,17-dimethyl-8,14-dioxo-15-oxa-4-thia-9,21,25,27,28-pentaazapentacyclo[17.5.2.1^{2,5}.1^{9,13}.0^{22,26}]octacosa-1(25),2,5(28),19,22(26),23-hexaen-7-yl]-3-methyl-2-{N-methyl-1-[(3S)-1-(prop-2-enoyl)pyrrolidin-3-yl]formamido}butanamide], for which, in assay [14], the EC50 was < 5 µM. Further, the IC50 is 0.1 to 1 µM in assay [1]; 1 to 10 µM in assay [2]; > 10 µM in [3]; 1 to 10 µM in assay [4]; 1 to 10 µM in [5]; 1 to 10 µM in [6]. The IC50 in assay [7] is 0.1 to 1 µM; in assay [8] it was > 10 µM; in [9], > 10 µM; in assay [10], 1 to 10 µM; in assay [11] it was 1 to 10 µM; in assay [13], 1 to 10 µM.

Consider `C=CC(=O)N1CCO[C@@H]2CCN(C(=O)N(C)[C@H](C(=O)N[C@H]3Cc4nc(cs4)-c4ccc5c(c4)c(c(-c4cccnc4[C@H](C)OC)n5CC)CC(C)(C)COC(=O)[C@@H]4CCCN(N4)C3=O)C(C)C)CC21` (some centres unmarked) [Example A596], for which the EC50 in [14] was < 5 µM. Further, the IC50 was 0.01 to 0.1 µM in [1]; 0.1 to 1 µM in [2]; 0.1 to 1 µM in assay [3]; > 10 µM in assay [4]; 0.01 to 0.1 µM in [5]; 0.01 to 0.1 µM in assay [6]. Besides, the IC50 in assay [7] was in the range of 0.01 to 0.1 µM; in [8], 0.1 to 1 µM; in assay [9], 0.1 to 1 µM; in assay [10], 0.01 to 0.1 µM; in assay [11] it was 0.01 to 0.1 µM; in [13], 0.01 to 0.1 µM.

Broadly, the IC50 is the concentration at which inhibition is half-maximal. What is called EC50 is the concentration that produces a half-maximal response.
